Tested on: not given
Assay: not given
Conditions: not given

**Q.** With `CC(C)(NC(=O)c1c(F)cccc1F)C(=O)c1ccc(C(F)(F)F)cn1` [Compound No. 8-43, 2,6-difluoro-N-[2-(5-trifluoromethyl-2-pyridylcarbonyl)-2-propyl]benzamide] as the molecule, how does the melting point read?
**A.** The melting point was 116 to 119 °C.

**Q.** Which melting point does the source give for `CC(C)(NC(=O)c1c(F)cccc1F)C(=O)c1ccsc1` [Compound No. 6-5, 2,6-difluoro-N-[1-methyl-1-(3-thenoyl)ethyl]benzamide] here?
**A.** The melting point was 139 to 142 °C.

Tested on: Southern Root-Knot Nematode (Meloidgyne incognita)
Assay: Test on southern root-knot nematode (soil incorporation)
Assay type: in vivo
Parameters: key: 0: No knot was formed; 1: Knots were formed to a slight degree; 2: Knots were formed to a moderate degree; 3: Knots were formed to a heavy degree; 4: Knots were formed to the heaviest degree
Conditions: 7 ml of 1600 ppm solution to 300 ml contaminated soil, tomato seedling, three to four weeks after transplantation
Protocol: Test on Southern Root-Knot Nematode (Meloidgyne incognita) (Soil Incorporation)
To 300 ml of the soil contaminated by southern root-knot nematode, 7 ml of a chemical solution having the concentration of the compound of the present invention adjusted to be 1600 ppm, is poured, followed by mixing so that the compound is uniformly dispersed. The treated soil is put into a pot (diameter: 9 cm, height: 8 cm), and then a tomato seedling in 2-leaf stage is transplanted and placed in a greenhouse. After three to four weeks from the transplantation of the tomato, the root knot index is determined based on the following standards. […] For example, the compound Nos. 1-25, 1-26, 1-73, 1-100, 1-122, 1-123, 1-125, 1-127, 1-130, 1-131, 1-133, 1-136, 1-137, 1-139, 1-140, 1-172, 1-173, 1-177, 5-5, 5-9, 5-11, 5-16, 5-20, 8-2, 8-5, 13-2, 13-4, 13-6, 13-7, 13-18, 13-19, 13-44, 13-45, 16-32, 16-37 and 16-38 were at a level of a root knot index of not more than 1.

**Q.** Which root knot index does the source give for `CC(C)(NC(=O)c1c(F)cccc1F)C(=O)c1ccc(OS(=O)(=O)C(F)(F)F)cc1` [Compound No. 1-26, 2,6-difluoro-N-[(1,1-dimethyl-4′-trifluoromethylsulfonyloxy)phenacyl]benzamide] here?
**A.** The root knot index was 1.

**Q.** With `CC(C)(NC(=O)c1ccccc1C(N)=O)C(=O)c1ccc(Cl)cc1` [Compound No. 1-122, 2-aminocarbonyl-N-[(4′-chloro-1,1-dimethyl)phenacyl]benzamide] as the molecule, how does the root knot index read?
**A.** The root knot index was 1.

**Q.** With `CC(C)(NC(=O)c1c(F)cccc1F)C(=O)c1ccc(OS(C)(=O)=O)cc1` [Compound No. 1-25, 2,6-difluoro-N-[(1,1-dimethyl-4′-methylsulfonyloxy)phenacyl]benzamide] as the molecule, how does the root knot index read?
**A.** Its root knot index is 1.

**Q.** For “2-fluoro-N-[2-[(2,2,3,3,-tetrafluoro-5-methyl-1,4-benzodioxan-6-yl)carbonyl]-2-propyl]benzamide [Compound No. 16-37]”, which root knot index is on record?
**A.** Its root knot index is 1.

Source: US8093241B2, “Acid amide derivatives, process for their production and pesticides containing them” (Ishihara Sangyo Kaisha, Ltd., priority 2001, dated 2012)
